The values below come from patent US9145375B2, “Quinazolinone compounds” (PRANA BIOTECHNOLOGY LIMITED, priority 2008, dated 2015).

“And” between values parts separate entries of the source, which are not always exact repeats. Equal entries are not always repeated.

The target of one data set is CYP2E1 (Homo sapiens, UniProt P05181). The conditions noted are these: read-out: Literature IC50 value, CYP2E1; Chlorzoxazone-6-hydroxylation; positive control inhibitor; unit inferred; cited from earlier work.
CYP2E1, sequence (P05181 whole entry): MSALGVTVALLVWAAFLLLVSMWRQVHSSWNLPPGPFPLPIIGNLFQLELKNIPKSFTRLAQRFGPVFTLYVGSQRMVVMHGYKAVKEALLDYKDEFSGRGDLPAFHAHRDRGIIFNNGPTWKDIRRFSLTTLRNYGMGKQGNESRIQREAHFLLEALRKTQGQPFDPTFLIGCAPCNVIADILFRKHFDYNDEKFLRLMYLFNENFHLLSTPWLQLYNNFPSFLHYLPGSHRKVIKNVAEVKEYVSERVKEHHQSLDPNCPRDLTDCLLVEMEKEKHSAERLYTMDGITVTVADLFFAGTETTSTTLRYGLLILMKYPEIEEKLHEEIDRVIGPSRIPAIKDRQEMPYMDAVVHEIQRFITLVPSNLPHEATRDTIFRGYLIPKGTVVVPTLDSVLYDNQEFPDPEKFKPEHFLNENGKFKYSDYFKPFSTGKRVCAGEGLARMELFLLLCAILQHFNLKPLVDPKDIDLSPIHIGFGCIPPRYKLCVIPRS
The test system of data set [1] is 6-OHDA lesion of the SNpc. As to the kind of experiment: Parkinson's disease in vivo: 6-OHDA model. Further details: species or system mouse. Conditions: 6-OHDA lesioned mice, dose not given; for Behaviour (Rotation) % SSV: SSV = 0%. As for the experimental part:
Parkinson's Disease In Vivo Technique: 6-OHDA Model
Preparation of the toxin 6-OHDA (1.65 mg/mL, Sigma Cat# H-4381):
6-OHDA toxin is dissolved in ascorbic acid solution (0.2 mg/mL in dH2O), store in dark on ice. To increase the speed of anaesthesia and reduce stress to the mouse, there is premedication with atropine (0.5 mg/kg) and xylazine (10 mg/kg) is injected subcutaneously via a 27 gauge needle).
To Prepare the Lesion Needle to Inject 6-OHDA:
PBS is sucked up into the line (ensure no air bubbles) with up to […] in a Hamilton syringe. Syringe is placed the in the Kd Scientific syringe pump and secured. Pump is turned the on and syringe is loaded into the pump. Pump volume is set at […] and the rate is set at 0.5 ml/min. The lesion needle is positioned so that the bevelled (eye) of the needle is at a 45° angle from the midline and tightened to secure the needle. Pump is run and checked for fluid coming out.
3-4% isoflurane is carried by oxygen to induce anaesthesia and 1-2% for maintenance of anaesthesia. Animal is placed in small induction chamber and subjected to a few minutes of 4% isoflurane in oxygen at a flow rate of approx 1 l/min. Mouse is then placed in stereotaxic frame. The anaesthetic tube is disconnected from induction box and isoflurane reduced to 2% conc and oxygen flow rate to approx […]. Tube is connected to the nose piece attached to stereotaxic frame so that anaesthetic gas can be constantly administered during surgery. LHS ear bar is screwed at approx 3 mm. RHS ear bar is screwed in until there is no sideways head movement (about 5 mm). Front incisors are placed over the mouthguard and put nose-guard on (3 mm below 0). Mouthguard is screwed into place and ensured the top of the mouse's head is level (re-check this once the animal's skull is exposed).
Using a scalpel (size 4, blade 22), the scalp is cut down the centreline of the mouse's head to expose the skull. Typically 10-15 mm. The surface of the skull is dried with a cotton bud. Drill hole is measured with a ruler 3 mm posterior from Bregma and between 1 and 1.5 mm laterally from the centre line. The skull is drilled into this position until the surface of the brain is exposed.
6-OHDA is sucked up to fill approximately 15 cm of the line and the syringe. Fluid is ensured to be coming out of needle. The bevelled of the needle is aligned over the centreline where Bregma crosses, viewed by Motik dissecting microscope. The needle is ensured to be a few mm above the skull before positioning. Frame is moved 2.9 mm in a posterior direction and 1.1 mm (11 small notches) laterally to the right (for RHS injections) from the starting coordinates at Bregma. Needle is moved down until the tip of the needle just touches the surface of the brain.
Needle is lowered to the required depth of 4.6 mm and brain is allowed to settle for 2 min.
[…] of toxin is injected into the RHS SNpc, taking 4 min. 2 min is allowed to ensure the toxin disperses. Needle is withdrawn and antiseptic applied to the wound, with suture or superglue to close.
Mouse is wrapped in a piece of tissue and placed in a warm recovery box (on a heat pad) with water bottles (50 ml tubes) warmed to 50 C. Panadol® syrup is added to mouse's water bottle.
Rotation is recorded by the Computer based Rotacount system—(Columbus Instruments, Columbus, Ohio, USA). The system comprised of 8 bowls with sensors connected to a computer which measures incremental turns (90 degrees and full turns 360 degrees) either clockwise or counter clockwise. The sensors are positioned above the centre of each bowl about 30 cm above each. Tubing and a thin empty plastic pipette are attached so that the sensor is now extended to with a few cm of the base of the bowl.
Mice are placed individually into the eight bowls. Mice are secured to the pipettes via a cable tie and tape. […]

Data set [2] relates to MPTP induced cell death in the SN. As to the kind of experiment: Parkinson's disease in vivo: MPTP model. The conditions noted are these: MPTP mice. Details: species or system mouse.

With `N[C@@H]1C[C@H]1c1ccccc1` (racemic) [Tranylcypromine], the IC50 – broadly, the concentration that inhibits the measured activity by half – on CYP2E1 was 8.94 µM.
As to `N[C@@H](Cc1ccc(O)c(O)c1)C(=O)O` [L-DOPA, L-3,4-dihydroxyphenylalanine], in data set [1], the “Behaviour (Rotation) % SSV” value was 52.26%, the “Behaviour (Rotation) total turns/h ± SD” value is “(123.67 ± 80.90) turns/h”, the “SN cell counts % of SSV (SSV = 0%)” value is given as 1.73% and the “SN cell counts (cells ± SD)” value was “(1953.78 ± 280.21) cells”. In data set [2] (L-DOPA 20 mg/kg), the “Behaviour Pole Test, % (SSV = 0%)” value is −205.29%; the “Behaviour Pole Test, value ± SD” value is on record as “(8.91 ± 5.25)”; the “SN cell counts % of SSV” value is 10.39% and 4.50%; the “SN cell counts (cells +/− SD)” value is 1935 ± 296 cells and 2015.91 ± 729.87 cells.
On to `C#CCN(C)[C@H](C)Cc1ccccc1` [Selegiline, reference compound], for which, in data set [1], the “Behaviour (Rotation) % SSV” value turned out to be 71.13%, the “Behaviour (Rotation) total turns/h ± SD” value is on record as “(74.80 ± 57.95) turns/h”, the “SN cell counts % of SSV (SSV = 0%)” value worked out at 0.43% and the “SN cell counts (cells ± SD)” value is “(1928.89 ± 301.77) cells”. In data set [2] (Selegiline 1 mg/kg), the “Behaviour Pole Test, % (SSV = 0%)” value is −198.93%; the “Behaviour Pole Test, value ± SD” value is “(8.73 ± 7.95)”; the “SN cell counts % of SSV” value stood at 39.2%; the “SN cell counts (cells +/− SD)” value was “(2754.62 ± 461.23) cells”.
